Test results reported in the supplement of paper PMC4237247.

Tests used:
HeLa [1] = test: mitotic arrest IC50 (G2/M DNA content, 20 h); higher = less potent
Experimental: (§1)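 HeLa cells were treated with a titration of each re-synthesised mitotic inhibitor. Mitotic arrest IC50 comes from a 20 h titration (190 pM to 10 uM) read as % G2/M by Vybrant DyeCycle Green cell cycle profiling on an Acumen cytometer. Cell viability IC50 comes from a 72 h titration (12.2 nM to 100 uM) read by CellTiter-Glo ATP luminescence, with curves fitted in CDD software. The maximal % of cells arrested in mitosis within the titration is also reported.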

HeLa [2] = test: maximal percent of cells arrested in mitosis within titration; higher = stronger mitotic arrest; conditions: 20 h
Experimental: as §1

HeLa [3] = test: cell viability IC50 (CellTiter-Glo, 72 h); higher = less potent
Experimental: as §1

| Structure (SMILES) | mitotic arrest IC50 (HeLa [1]) [nM] | maximal percent (HeLa [2]) [%] | cell viability IC50 (HeLa [3]) [nM] |
| --- | --- | --- | --- |
| O=c1[nH]c(/C=C/c2ccccc2)nc2ccccc12 | 1350 | 61 | 1160 |
| O=c1[nH]c(/C=C/c2ccccc2F)nc2ccccc12 | 285 | 49.9 | 720 |
| CCN(CC)CCN1C(=O)C(=O)C(=C(O)c2ccccc2)C1c1ccccc1F (stereo not drawn) | 4780 | 55.8 | 6630 |
| O=C(O)c1ccccc1SC1CC(=O)N(c2ccc(Br)cc2)C1=O (stereo not drawn) | 2650 | 70.4 | 2270 |
| O=C(CSc1nc2ccc([N+](=O)[O-])cc2s1)c1ccc(Cl)cc1 | 9120 | 61.7 | 12500 |
| COc1cc(-c2onc3ccc(Cl)cc23)cc(OC)c1OC | 539 | 54.8 | 470 |
| CC(=O)Nc1ccc(Nc2nc(-c3c(C)nc4ccccn34)cs2)cc1 | 88.5 | 65.3 | 121 |
| COC(=O)Nc1nc2cc(C(=O)c3cccs3)ccc2[nH]1 [Nocodazole] | 129 | 68.5 | 45.6 |
| COC(=O)Nc1nc2cc(Sc3ccccc3)ccc2[nH]1 [Fenbendazole] | 279 | 62.5 | 389 |
| CC(=O)O[C@H]1C(=O)[C@@]2(C)[C@H]([C@H](OC(=O)c3ccccc3)[C@]3(O)C[C@H](OC(=O)[C@H](O)[C@@H](NC(=O)c4ccccc4)c4ccccc4)C(C)=C1C3(C)C)[C@]1(OC(C)=O)CO[C@@H]1C[C@@H]2O [Taxol] | 37.1 | 74 | 27.3 |
| COC(=O)Nc1nc2cc(C(=O)c3ccccc3)ccc2[nH]1 [Mebendazole] | 202 | 76.6 | 222 |
